≈ marks a conversion by molar mass, not a printed value. Like-named read-outs stand apart in the source and are kept apart here.
Key:
L-1210 leukemia = assay: Antineoplastic activity against L-1210 leukemia (single i.v. dose, survival vs control mice); type: in vivo, BDF1 male mice; conditions: single i.v. dose 24 hours after i.v. implant of 10^5 L-1210 cells; at optimum dose (Adriamycin 33.6, Ex. XII 27, 4-Demethoxydaunorubicin 4.5 μmoles/kg); ten mice per group
Procedure: The antineoplastic activity of the compounds of this invention was first established against L-1210 leukemia. The relative activities against the L-1210 leukemia and the L cell cytotoxicity was determined and compared to that of adriamycin.
Donor mice were implanted with L-1210 leukemia cells i.p. On the sixth day following implant, the mice were sacrificed. Tumor cells were collected from the peritoneal cavity, suspended in saline solution, and 10^5 cells per mouse were implanted i.v. into BDF1 male mice weighing 18-20 grams. Ten mice per treatment group were employed and the day of implantation considered as day 0. A single dose of test compound was administered by i.v. injection 24 hours following the implant of L-1210 tumor cells. The animals were observed and the survival pattern was compared with that of control mice which received the same tumor implant but were not treated with drug. Results are presented as %ILS (increase in life span over control animals) in Table 3 below.

L-cells = assay: L-cell cytotoxicity; type: cell-based; conditions: 48 h
Procedure: Expotentially growing L-cells were treated with dilutions of Compound XII and adriamycin and ID50 (concentration of compounds giving 50% inhibition of cell growth) measured after 48 hours with the following results.

[1] = background; limits use; cited from earlier work
L-1210 leukemias = assay: Activity against L-1210 leukemia by oral or intraperitoneal administration; type: in vivo
P-388 leukemias = assay: Activity against P-388 leukemia by oral or intraperitoneal administration; type: in vivo
[2] = administered intraperitoneally, compared with intravenous

Row | Structure (SMILES) | % ILS (increase in life span over control animals) (L-1210 leukemia) | Survivors at day 60 (L-1210 leukemia) | IC50 (L-cells; read-out: ID50 (concentration of compounds giving 50% inhibition of cell growth), Ex. 19, exponentially growing L-cells) | IC50 (L-cells; read-out: ID50 (concentration of compounds giving 50% inhibition of cell growth), Ex. 20, exponentially growing L-cells) | cardiac toxicity [1] | activity against L-1210 leukemia (L-1210 leukemias; [2]) | activity against L-1210 leukemia (L-1210 leukemias; administered orally) | activity against P-388 leukemia (P-388 leukemias; [2]) | activity against P-388 leukemia (P-388 leukemias; administered orally) | IC50 (L-cells; Ex. 19, exponentially growing L-cells, read-out: ID50 (concentration of compounds giving 50% inhibition of cell growth)) | IC50 (L-cells; Ex. 20, exponentially growing L-cells, read-out: ID50 (concentration of compounds giving 50% inhibition of cell growth))
1 | COc1cccc2c1C(=O)c1c(O)c3c(c(O)c1C2=O)C[C@@](O)(C(=O)CO)C[C@@H]3O[C@H]1C[C@H](N)[C@H](O)[C@H](C)O1 [Adriamycin] | 100% | 0 | 0.063 µg/mL (≈ 0.116 µM) | 0.1 µg/mL (≈ 0.184 µM) | cardiac toxicity |  |  |  |  |  | 
2 | CC(=O)[C@]1(O)Cc2c(N)c3c(c(O)c2[C@@H](O[C@H]2C[C@H](N)[C@H](O)[C@H](C)O2)C1)C(=O)c1ccccc1C3=O [Compound XII, cis-9-acetyl-11-amino-7S-[(3-amino-2,3,6-trideoxy-α-L-lyxo-hexopyranosyl)oxy]-7,8,9,10-tetrahydro-6,9-dihydroxy-5,12-naphthacenedione chloride] | 96% | 0 |  |  |  | less active | inactive | less active | inactive | 0.01 µg/mL | 0.015 µg/mL
3 | CC(=O)[C@]1(O)Cc2c(O)c3c(c(O)c2[C@@H](O[C@H]2C[C@H](N)[C@H](O)[C@H](C)O2)C1)C(=O)c1ccccc1C3=O [4-Demethoxydaunorubicin] | 83% | 0 |  |  |  |  |  |  |  |  | 

From US4348388A, “11-Amino-11-deoxydaunorubicin and analogs” (G.D. Searle & Co., priority 1980, dated 1982)
